Data reported in patent US5466716A, “Liposomal trimethylsphingosine” (The Biomembrane Institute, priority 1994, dated 1995).
Entries after “also recorded” stand apart in the source; their conditions may differ. Where two headings read alike, the source gives them in different places.

Assays:
Format in all cases: cell-based, human
[1] = neutrophil viability (trypan blue exclusion); settings: neutrophils
Procedure: (§1) The viability was evaluated by trypan blue exclusion assay. The cell
(§2) incubated at 37° C. for 10 min with effectors. The aliquot was
(§3) mixed with an equal amount of trypan blue solution and immediately counte
(§4) under a Nikon light microscope.

neutrophils = assay: neutrophil viability (trypan blue exclusion); settings: for cytotoxic damage to neutrophils: 25 μM
Procedure: as §1, §2, §3, §4

GMP-140 = GMP-140 expression on platelets (flow cytometry, mAb AC1.2)
Procedure: FIGS. 11A and 11B depict results of representative experiments assessing the percentage of platelets capable of binding an anti-GMP-140 antibody following exposure to various agents. The percentage binding activity was determined in a flow cytometer. SPN is sphingosine; H-7 is 1-(5-isoquinolinylsulfonyl)-2-methylpiperazine; Cal is calphostin-C; TMS is trimethylsphingosine; and DMS is dimethylsphingosine.
GMP-140 expression was determined by (i) flow cytometry with mAb AC1.2, which is directed to GMP-140 and obtained from Dr. Furie (Tufts Univ. Sch. Med., Boston, Mass.) and (ii) adhesion of HL60 cells on platelet-coated solid phase.
A suspension of platelets (1×10^8 /ml) in Tyrode's buffer was preincubated with inhibitor at pH 7.2, 37° C., for 5 minutes, then supplemented with activator, either thrombin (final concentration 1 U/ml) or phorbol 12-myristate 13-acetate (PMA (final concentration 10^-7 M), and the mixture was incubated at 37° C. for 10 minutes. Platelets were fixed with an equal volume of 2% (w/v) paraformaldehyde in PBS and washed 2 times with PBS containing 1% (w/v) BSA.
The paraformaldehyde-fixed platelets were incubated with 50 μl of mAb AC1.2 (2.5 μg/ml) at room temperature for 30 minutes. Platelets were washed 2 times with PBS containing 1% (w/v) BSA, supplemented with 50 μl of fluorescein isothiocyanate-labeled goat anti-mouse Ig (purchased from Tago Co., Burlingame, Calif.), incubated at room temperature for 30 minutes and again washed 2 times with PBS containing 1% (w/v) BSA. As a negative control, paraformaldehyde-fixed platelets were incubated with mouse IgG instead of mAb AC1.2 and treated as described above.
The platelets were analyzed in an Epics flow cytometer (Coulter Corp.) with suitable gating. To calculate the inhibitory effect of various reagents, the mean fluorescence intensity of resting platelets (obtained on incubation of platelets without activator) was subtracted from the value for the activated platelet sample.

HL60 cells = assay: HL60 cell binding to activated platelets; settings: thrombin- and PMA-stimulated platelets
Procedure: FIGS. 12A and 12B depict results of representative experiments assessing the degree of HL60 binding to platelets. Platelets were exposed to inhibiting compounds (symbols are the same as in the legend to FIGS. 11A and 11B) and affixed to the wells of a microtiter plate. HL60 cells labelled with tritiated thymidine were introduced into the wells and the amount of bound radioactivity was assessed.
HL60 (a human promylelocytic cell line available from the ATCC under accession number CCL 240) adhesion on resting or activated platelet-coatedsolid phase was evaluated as follows. Each well of a 48-well plate (Costar Scientific, Cambridge, Mass.) was filled with a poly-L-lysine solution (100 μg/ml in PBS) and incubated for 1 hour. Each well then was washed with PBS and then 150 μl of PBS containing 6×10^7 resting or activated platelets were added to each well and the plate was incubated for 1 hour. Plates were centrifuged (300×g for 7 minutes) and incubated a further 30 minutes at room temperature. Bound platelets were fixed by addition of 0.1% (w/v) glutaraldehyde in PBS for 2 minutes at 4° C. Each well was washed with 10 mM glycine in PBS and plates were incubated with 5% (w/v) BSA containing 0.1% (w/v) sodium azide, 10 mM glycine in PBS for 1 hour at room temperature.
After washing with culture medium (RPMI 1640 containing 5% (v/v) FCS), 1×10^6 HL60 cells labeled with [^3 H]thymidine were added to each well. HL60 was maintained in RPMI 1640 medium (purchased from Irvine Scientific, Santa Ana, Calif.) supplemented with 10% FCS (Hyclone, Logan, Utah). (Radiolabeling of HL60 cells used for cell adhesion assays was performed by incubating cells with 2 μCi/ml of [^3 H]thymidine overnight.) After incubation for 45 minutes at room temperature, unbound cells were aspirated and wells were washed once with medium (RPMI 1640 containing 5% (v/v) FCS), bound cells were detached with 0.05% (w/v) trypsin-0.02% (w/v) EDTA (Irvine Scientific) in PBS and the levels of radioactivity in each well were determined in a liquid scintillation counter.

[2] = Table III, control 94, read-out: Viability

Compound	cytotoxicity at 10 min, 15 µM [1]	viability at 10 min, 15 µM [1, 2]	viability at 10 min, 5 µM ([1]; Table V, 37° C., 10 min)	viability at 10 min, 25 µM ([1]; Table V, 37° C., 10 min)	viability at 10 min, 45 µM ([1]; Table V, 37° C., 10 min)	cytotoxic damage to neutrophils (neutrophils)	inhibition of GMP-140 expression (GMP-140; PMA-induced, FIG. 11B)	inhibition of GMP-140 expression (GMP-140; thrombin-induced, FIG. 11A)	inhibition of HL60 cell binding (HL60 cells)	viability at 10 min, 15 µM ([1]; Table V, 37° C., 10 min, read-out: Viability of neutrophils)	inhibition of GMP-140 expression (GMP-140; PMA-induced, 10-20 μM)	cell cytotoxicity (neutrophils; 15 μM)	cell viability during transmigration (neutrophils; 15 μM)	cell viability (neutrophils; Examples 9 and 10)	GMP-140 expression (GMP-140; platelets preincubated with TMS)	inhibition of GMP-140 expression (GMP-140; thrombin-induced, 10-20 μM)	Viability (neutrophils; Table III, 5 μM, control 94, 10 min)
CCCCCCCCCCCCC/C=C/[C@@H](O)[C@@H](N)CO [SPN, sphingosine]	12 to 13%	87 ± 5.3%	95 ± 3%	53 ± 18%	5 ± 5%	major cytotoxic damage to neutrophils	Neither SPN nor H-7 showed inhibition	no inhibition	minimally inhibited	–	–	–	–	–	–	–	–
CCCCCCCCCCCCC/C=C/[C@@H](O)[C@H](CO)N(C)C [DMS, (4E)-N,N-dimethyl-D-erythro-sphingosine]	12 to 13%	–	96 ± 3%	29 ± 5%	0%	major cytotoxic damage to neutrophils	–	strongly inhibited thrombin-induced GMP-140 expression	inhibited strongly	88 ± 8%	strongly inhibited GMP-140 expression	–	–	–	–	–	–
CCCCCCCCCCCCC/C=C/[C@@H](O)[C@H](CO)[N+](C)(C)C [TMS, N,N,N-trimethylsphingosine]	–	97 ± 2.9%	98 ± 2%	83 ± 6%	63 ± 8%	negligible	–	–	inhibited strongly	–	strongly inhibited GMP-140 expression	no significant cell cytotoxicity	without affecting the viability of the cells	without an adverse effect on cell viability; also recorded: without effecting cell viability	inhibits GMP-140 expression; also recorded: down-regulated or blocked	strongly inhibited GMP-140 expression	–
Calphostin C	–	–	–	–	–	–	–	–	–	–	–	–	–	–	–	weak inhibition	46 ± 5.5
